In ChEMBL document CHEMBL5154943, “Crystallography-Guided Optimizations of the Keap1-Nrf2 Inhibitors on the Solvent Exposed Region: From Symmetric to Asymmetric Naphthalenesulfonamides” (J Med Chem, 2022):
Converted amounts (≈) assume the structure as drawn. The source made the active and inactive calls. The rule behind the calls is not given here.

Key:
[1] = Aqueous solubility of the compound in PBS at pH 2 after 24 hrs by HPLC-UV analysis; type: physicochemical
[2] = Aqueous solubility of the compound in PBS at pH 7 after 24 hrs by HPLC-UV analysis; type: physicochemical
[3] = Aqueous solubility of the compound in PBS at pH 7.4 after 24 hrs by HPLC-UV analysis; type: physicochemical
Keap1/Nrf2 = Keap1/Nrf2 (Homo sapiens, UniProt Q14145); test: Inhibition of recombinant N-terminal His6-tagged human Keap1-Nrf2 (322 to 609 residues) (unknown origin) protein-protein interaction expressed in Escherichia coli (DE3) incubated for 60 mins by fluorescence anisotropy assay
Chain of Keap1/Nrf2 (Q16236 whole entry, the tested form may be a part): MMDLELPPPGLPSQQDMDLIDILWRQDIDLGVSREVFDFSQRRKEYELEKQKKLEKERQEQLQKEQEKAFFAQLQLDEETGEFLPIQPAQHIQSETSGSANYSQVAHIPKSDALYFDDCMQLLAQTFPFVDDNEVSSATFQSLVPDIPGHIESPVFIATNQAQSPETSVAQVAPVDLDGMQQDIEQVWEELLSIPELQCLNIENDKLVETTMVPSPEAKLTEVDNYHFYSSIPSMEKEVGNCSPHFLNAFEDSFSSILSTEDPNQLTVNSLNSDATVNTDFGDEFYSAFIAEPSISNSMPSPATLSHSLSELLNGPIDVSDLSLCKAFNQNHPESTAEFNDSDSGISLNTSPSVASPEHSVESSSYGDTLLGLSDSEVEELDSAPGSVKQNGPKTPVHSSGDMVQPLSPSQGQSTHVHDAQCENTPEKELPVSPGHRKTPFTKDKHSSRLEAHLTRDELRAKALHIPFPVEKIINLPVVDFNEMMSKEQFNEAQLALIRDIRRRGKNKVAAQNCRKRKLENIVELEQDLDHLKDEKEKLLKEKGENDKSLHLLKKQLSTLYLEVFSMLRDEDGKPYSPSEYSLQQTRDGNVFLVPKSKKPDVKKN
Chain of Keap1/Nrf2 (Q14145 whole entry, the tested form may be a part): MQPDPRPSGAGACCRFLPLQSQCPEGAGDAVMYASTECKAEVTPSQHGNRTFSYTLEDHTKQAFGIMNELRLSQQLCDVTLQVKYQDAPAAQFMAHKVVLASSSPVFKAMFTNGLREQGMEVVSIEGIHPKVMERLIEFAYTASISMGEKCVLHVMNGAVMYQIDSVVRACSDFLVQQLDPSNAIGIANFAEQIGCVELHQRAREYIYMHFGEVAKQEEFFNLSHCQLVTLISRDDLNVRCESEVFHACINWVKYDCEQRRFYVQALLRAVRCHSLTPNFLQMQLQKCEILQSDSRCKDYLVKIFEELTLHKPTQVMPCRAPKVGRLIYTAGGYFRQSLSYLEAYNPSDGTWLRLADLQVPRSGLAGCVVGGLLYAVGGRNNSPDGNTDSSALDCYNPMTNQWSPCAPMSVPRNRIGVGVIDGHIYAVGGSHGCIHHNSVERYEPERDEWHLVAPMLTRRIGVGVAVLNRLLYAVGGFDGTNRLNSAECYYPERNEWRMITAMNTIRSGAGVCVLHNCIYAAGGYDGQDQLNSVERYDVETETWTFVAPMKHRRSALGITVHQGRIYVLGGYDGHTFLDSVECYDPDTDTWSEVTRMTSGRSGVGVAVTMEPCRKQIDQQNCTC

Peritoneal macrophage [4] = test: Cytotoxicity against mouse peritoneal macrophages assessed as reduction in cell viability measured after 24 hrs by Cell Titer-Blue assay; type: functional
Peritoneal macrophage [5] = test: Antiinflammatory activity against LPS-induced mouse peritoneal macrophage assessed as suppression of ROS level at 10 uM pretreated with LPS followed by compound addition and measured after 6 hrs by DCFH-DA staining based fluorescence analysis; type: functional, cell-based
Peritoneal macrophage [6] = test: Antiinflammatory activity against LPS-induced mouse peritoneal macrophage assessed as suppression of NO level at 10 uM pretreated with LPS followed by compound addition and measured after 24 hrs by Griess reagent based assay; type: functional, cell-based
Peritoneal macrophage [7] = test: Antiinflammatory activity against LPS-induced mouse peritoneal macrophage assessed as inhibition of TNF alpha level at 10 uM after 4 hrs by ELISA method; type: functional, cell-based
Mus musculus [8] = test: Antiinflammatory activity against ip dosed LPS-induced ALI C57BL/6J mouse model assessed as reduction in TNF-alpha level in BALF administered 0.5 hr prior to LPS stimulation by ELISA method; type: functional, organism-based; conditions: dose 5-20 mg/kg, DDE = dose-dependent effect
Mus musculus [9] = test: Antiinflammatory activity against ip dosed LPS-induced ALI C57BL/6J mouse model assessed as reduction in […] level in BALF administered 0.5 hr prior to LPS stimulation by ELISA method; type: functional, organism-based; conditions: dose 5-20 mg/kg, DDE = dose-dependent effect
Mus musculus [10] = test: Antiinflammatory activity against ip dosed LPS-induced ALI C57BL/6J mouse model assessed as reduction in IL-6 level in BALF administered 0.5 hr prior to LPS stimulation by ELISA method; type: functional, organism-based; conditions: dose 5-20 mg/kg, DDE = dose-dependent effect
Mus musculus [11] = test: Antiinflammatory activity against ip dosed LPS-induced ALI C57BL/6J mouse model assessed as reduction in TNF-alpha mRNA expression in BALF administered 0.5 hr prior to LPS stimulation by RT-qPCR method; type: functional, organism-based; conditions: dose 5-20 mg/kg, DDE = dose-dependent effect
Mus musculus [12] = test: Antiinflammatory activity against ip dosed LPS-induced ALI C57BL/6J mouse model assessed as reduction in IL-1beta mRNA expression in BALF administered 0.5 hr prior to LPS stimulation by RT-qPCR method; type: functional, organism-based; conditions: dose 5-20 mg/kg, DDE = dose-dependent effect
Mus musculus [13] = test: Antiinflammatory activity against ip dosed LPS-induced ALI C57BL/6J mouse model assessed as reduction in IL-6 mRNA expression in BALF administered 0.5 hr prior to LPS stimulation by RT-qPCR method; type: functional, organism-based; conditions: dose 5-20 mg/kg, DDE = dose-dependent effect
Mus musculus [14] = test: In vivo inhibition of Keap1-Nrf2 interaction in LPS-induced acute lung injury C57BL/6J mouse model assessed as increase in Nrf2 nuclear translocation in lungs by measuring decrease in cytosolic Nrf2 level treated intraperitoneally at 0.5 hrs before LPS stimulation by Western blot analysis; type: functional, organism-based; conditions: dose 5-20 mg/kg, route ip, DDE = dose-dependent effect
Mus musculus [15] = test: In vivo inhibition of Keap1-Nrf2 interaction in LPS-induced acute lung injury C57BL/6J mouse model assessed as increase in Nrf2 nuclear translocation in lungs by measuring increase in nuclear Nrf2 level treated intraperitoneally at 0.5 hrs before LPS stimulation by Western blot analysis; type: functional, organism-based; conditions: dose 5-20 mg/kg, route ip, DDE = dose-dependent effect

solubility at 24 h [1]	solubility at 24 h [2]	solubility at 24 h [3]	Kd (Keap1/Nrf2)	SMILES	CC50 (Peritoneal macrophage [4])	other results
1030 µg/mL	129 µg/mL	72.5 µg/mL		CCN1CCN(CCC(=O)Nc2ccc(S(=O)(=O)N(CC(N)=O)c3ccc(N(CC(N)=O)S(=O)(=O)c4ccc(OC)cc4)c4ccccc34)cc2)CC1.O=C(O)CC(O)(CC(=O)O)C(=O)O		
			2910 nM	COc1ccc(S(=O)(=O)N(CC(N)=O)c2ccc(N(CC(N)=O)S(=O)(=O)c3ccc(NC(=O)CCN4CCSCC4)cc3)c3ccccc23)cc1	> 50000 nM	
			1420 nM	COc1ccc(S(=O)(=O)N(CC(N)=O)c2ccc(N(CC(N)=O)S(=O)(=O)c3ccc(NC(=O)CCN4CCCCC4)cc3)c3ccccc23)cc1	> 100000 nM	
			1350 nM	COc1ccc(S(=O)(=O)N(CC(N)=O)c2ccc(N(CC(N)=O)S(=O)(=O)c3ccc(NC(=O)CN4CCOCC4)cc3)c3ccccc23)cc1	> 100000 nM	
			1080 nM	COc1ccc(S(=O)(=O)N(CC(N)=O)c2ccc(N(CC(N)=O)S(=O)(=O)c3ccc(NC(=O)CCCN4CCOCC4)cc3)c3ccccc23)cc1	> 100000 nM	
47.5 µg/mL (≈ 79.5 µM)	55.4 µg/mL (≈ 92.7 µM)	33.6 µg/mL (≈ 56.2 µM)		COc1ccc(S(=O)(=O)N(CC(N)=O)c2ccc(N(CC(N)=O)S(=O)(=O)c3ccc(N)cc3)c3ccccc23)cc1		
			8940 nM	COc1ccc(S(=O)(=O)N(CC(N)=O)c2ccc(N(CC(N)=O)S(=O)(=O)c3ccc(NC(=O)CN4CCSCC4)cc3)c3ccccc23)cc1	> 100000 nM	
			2920 nM	COc1ccc(S(=O)(=O)N(CC(N)=O)c2ccc(N(CC(N)=O)S(=O)(=O)c3ccc(NC(=O)CCCN4CCSCC4)cc3)c3ccccc23)cc1	> 100000 nM	
			1030 nM	COc1ccc(S(=O)(=O)N(CC(N)=O)c2ccc(N(CC(N)=O)S(=O)(=O)c3ccc(NC(=O)CCN4CCOCC4)cc3)c3ccccc23)cc1	> 100000 nM	Activity (Peritoneal macrophage [5]): Active; Activity (Peritoneal macrophage [6]): Active; Activity (Peritoneal macrophage [7]): Active
			710 nM	COc1ccc(S(=O)(=O)N(CC(N)=O)c2ccc(N(CC(N)=O)S(=O)(=O)c3ccc(NC(=O)CCN4CCN(C(C)C)CC4)cc3)c3ccccc23)cc1	> 100000 nM	
1460 µg/mL	170 µg/mL	130 µg/mL		Br.CCN1CCN(CCC(=O)Nc2ccc(S(=O)(=O)N(CC(N)=O)c3ccc(N(CC(N)=O)S(=O)(=O)c4ccc(OC)cc4)c4ccccc34)cc2)CC1		
1080 µg/mL	130 µg/mL	76.9 µg/mL		CCN1CCN(CCC(=O)Nc2ccc(S(=O)(=O)N(CC(N)=O)c3ccc(N(CC(N)=O)S(=O)(=O)c4ccc(OC)cc4)c4ccccc34)cc2)CC1.O=C(O)CCC(=O)O		
			480 nM	CCN1CCN(CC(=O)Nc2ccc(S(=O)(=O)N(CC(N)=O)c3ccc(N(CC(N)=O)S(=O)(=O)c4ccc(OC)cc4)c4ccccc34)cc2)CC1	> 100000 nM	
			580 nM	CCN1CCN(CCCC(=O)Nc2ccc(S(=O)(=O)N(CC(N)=O)c3ccc(N(CC(N)=O)S(=O)(=O)c4ccc(OC)cc4)c4ccccc34)cc2)CC1	> 100000 nM	
1050 µg/mL	122 µg/mL	80.5 µg/mL		CCN1CCN(CCC(=O)Nc2ccc(S(=O)(=O)N(CC(N)=O)c3ccc(N(CC(N)=O)S(=O)(=O)c4ccc(OC)cc4)c4ccccc34)cc2)CC1.O=C(O)/C=C\C(=O)O		
			2080 nM	COc1ccc(S(=O)(=O)N(CC(N)=O)c2ccc(N(CC(N)=O)S(=O)(=O)c3ccc(NC(=O)CCN4CCC(C)CC4)cc3)c3ccccc23)cc1	> 100000 nM	
			6640 nM	COc1ccc(S(=O)(=O)N(CC(N)=O)c2ccc(N(CC(N)=O)S(=O)(=O)c3ccc(NC(=O)CN4CCCCC4)cc3)c3ccccc23)cc1	> 100000 nM	
532 µg/mL	58.6 µg/mL	40.7 µg/mL		Br.Br.COc1ccc(S(=O)(=O)N(CC(N)=O)c2ccc(N(CC(N)=O)S(=O)(=O)c3ccc(N)cc3)c3ccccc23)cc1		
1260 µg/mL	135 µg/mL	105 µg/mL		CCN1CCN(CCC(=O)Nc2ccc(S(=O)(=O)N(CC(N)=O)c3ccc(N(CC(N)=O)S(=O)(=O)c4ccc(OC)cc4)c4ccccc34)cc2)CC1.O=C(O)C(F)(F)F		
			1450 nM	COc1ccc(S(=O)(=O)N(CC(N)=O)c2ccc(N(CC(N)=O)S(=O)(=O)c3ccc(NC(=O)CN4CCN(C(C)C)CC4)cc3)c3ccccc23)cc1	> 100000 nM	
			1760 nM	COc1ccc(S(=O)(=O)N(CC(N)=O)c2ccc(N(CC(N)=O)S(=O)(=O)c3ccc(NC(C)=O)cc3)c3ccccc23)cc1	> 50000 nM	Activity (Peritoneal macrophage [5]): Active; Activity (Peritoneal macrophage [6]): Active; Activity (Peritoneal macrophage [7]): Active
1570 µg/mL	151 µg/mL	47.7 µg/mL		CCN1CCN(CCC(=O)Nc2ccc(S(=O)(=O)N(CC(N)=O)c3ccc(N(CC(N)=O)S(=O)(=O)c4ccc(OC)cc4)c4ccccc34)cc2)CC1.Cl		
			6110 nM	COc1ccc(S(=O)(=O)N(CC(N)=O)c2ccc(N(CC(N)=O)S(=O)(=O)c3ccc(NC(=O)CN4CCC(C)CC4)cc3)c3ccccc23)cc1	> 50000 nM	
			> 10000 nM	CCCCC(=O)Nc1ccc(S(=O)(=O)N(CC(N)=O)c2ccc(N(CC(N)=O)S(=O)(=O)c3ccc(OC)cc3)c3ccccc23)cc1	> 100000 nM	
			> 10000 nM	CCCC(=O)Nc1ccc(S(=O)(=O)N(CC(N)=O)c2ccc(N(CC(N)=O)S(=O)(=O)c3ccc(OC)cc3)c3ccccc23)cc1	> 100000 nM	
926 µg/mL	120 µg/mL	77.9 µg/mL		CC(=O)O.CCN1CCN(CCC(=O)Nc2ccc(S(=O)(=O)N(CC(N)=O)c3ccc(N(CC(N)=O)S(=O)(=O)c4ccc(OC)cc4)c4ccccc34)cc2)CC1		
			1480 nM	COc1ccc(S(=O)(=O)N(CC(N)=O)c2ccc(N(CC(N)=O)S(=O)(=O)c3ccc(NC(=O)CCCN4CCN(C(C)C)CC4)cc3)c3ccccc23)cc1	> 100000 nM	
				CCN1CCN(CCC(=O)Nc2ccc(S(=O)(=O)N(CC(N)=O)c3ccc(N(CC(N)=O)S(=O)(=O)c4ccc(OC)cc4)c4ccccc34)cc2)CC1		Activity (Peritoneal macrophage [5]): Active; Activity (Mus musculus [8]): Dde; Activity (Mus musculus [9]): Dde; Activity (Mus musculus [10]): Dde; Activity (Mus musculus [11]): Dde; Activity (Mus musculus [12]): Dde; Activity (Mus musculus [13]): Dde; Activity (Mus musculus [14]): Dde; Activity (Peritoneal macrophage [6]): Active; Activity (Peritoneal macrophage [7]): Active; Activity (Mus musculus [15]): Dde
			2810 nM	CCC(=O)Nc1ccc(S(=O)(=O)N(CC(N)=O)c2ccc(N(CC(N)=O)S(=O)(=O)c3ccc(OC)cc3)c3ccccc23)cc1	> 50000 nM	
